US20260317364A1, “ACTIVE MACROLIDE ANTIBIOTIC COMPOUNDS AGAINST PATHOGENS” (priority 2023, published 2026)

Key:
[1] = tested on: E. coli tolC-deficient (tolC; MB5747); test: Antibacterial activity against tolC-deficient E. coli; assay type: cell-based
[2] = tested on: panel of bacterial isolates, including macrolide-resistant strains; test: Antibacterial activity against panel of bacterial isolates (MIC); assay type: cell-based; settings: comparison with other compounds of the series or reference macrolides
Procedure: Acylides 2-24, as well as carbamate acylides 29-42, 47-48 and 55 and 56 were tested for antibacterial activity against a panel of bacterial isolates, including macrolide-resistant strains. Furthermore, potential toxicity against human HEK293 and red blood cells was assessed. All compounds were submitted to ComPlat (Karlsruhe Institute of Technology, Germany) for compound management and screening. As reference antibiotics, the macrolide antibiotics clarithromycin (CTY), telithromycin (TEL), solithromycin (SOL), as well as the previously reported acylides TEA0777 and X10324 (See, Wayne, P. C. a. L. S. I., Methods for Dilution Antimicrobial Susceptibility Tests for Bacteria That Grow Aerobically. CLSI document M07. CLSI 2009) were employed. […]
Furthermore, the Gram-negative bacteria E. coli (DSM 30083), Acinetobacter baumannii Bouvet and Grimont 1986 (DSM 30007) and Pseudomonas aeruginosa (DSM 50071) were assayed. […] The MIC values were determined as previously described (See, Wayne, P. C. a. L. S. I., Methods for Dilution Antimicrobial Susceptibility Tests for Bacteria That Grow Aerobically. CLSI document M07. CLSI 2009; Albada, H. B., et al., Modulating the activity of short arginine-tryptophan containing antibacterial peptides with N-terminal metallocenoyl groups. 2012. 8(1): p. 1753-1764).

| Compound | activity against tolC-deficient E. coli [1] | antibacterial activity (in words) [2] |
| --- | --- | --- |
| CC[C@H]1OC(=O)[C@H](C)[C@@H](O[C@H]2C[C@@](C)(OC)[C@@H](O)[C@H](C)O2)[C@H](C)[C@@H](O[C@@H]2O[C@H](C)C[C@H](N(C)C)[C@H]2O)[C@](C)(OC)C[C@@H](C)C(=O)[C@H](C)[C@@H](O)[C@]1(C)O [clarithromycin] | apart from the clinically used clarithromycin and telithromycin show activity | – |
| CC[C@H]1OC(=O)[C@H](C)C(=O)[C@H](C)[C@@H](O[C@@H]2O[C@H](C)C[C@H](N(C)C)[C@H]2O)[C@](C)(OC)C[C@@H](C)C(=O)[C@H](C)[C@H]2N(CCCCn3cnc(-c4cccnc4)c3)C(=O)O[C@]12C [telithromycin] | apart from the clinically used clarithromycin and telithromycin show activity | – |
| 2-desfluoro-solithromycin [Compound 50] | – | significantly less potent than solithroymcin |
